{
  "source": "patent US20260021046A1",
  "about": "“LIPID NANOPARTICLE AND PHARMACEUTICAL COMPOSITION” (NATIONAL UNIVERSITY CORPORATION HOKKAIDO UNIVERSITY, priority 2022, published 2026)",
  "key": {"[1]": {"test_system": "SMO mRNA", "experiment": "In vivo SMO mRNA knockdown in liver tissue by qRT-PCR", "set-up": "species or system mice", "conditions": "SMO-siRNA lipid nanoparticles, 0.5 mg/kg RNA iv, 24 hours, versus HEPES buffer control", "description": "TAA-induced liver fibrosis model mice were prepared in the same manner as in Example 1, and SMO-siRNA-encapsulated lipid nanoparticles were intravenously administered to the mice via the tail vein so that the amount of RNA per kg of body weight was 0.5 mg/kg. 24 hours after the administration, the mouse livers were collected. The ratio of the amount of SMO mRNA to the amount of GAPDH mRNA in the liver tissue was confirmed by qRT-PCR. The SMO gene is expressed only in hepatic stellate cells in the liver.\nNext, a lipid composition containing CL15H6 and SMO-siRNA were mixed in different ratios to prepare lipid nanoparticles with different nitrogen/phosphate (N/P) ratios. Specifically, lipid nanoparticles were prepared with N/P ratios of 0.5, 1, 2, 4, 8, 12, 16, and 20. The prepared lipid nanoparticles were intravenously administered to mice with liver fibrosis so that the amount of RNA per kg of body weight was 0.5 mg/kg, and the ratio of the amount of SMO mRNA to the amount of GAPDH mRNA in the liver tissue was confirmed 24 hours later.\nNext, the relationship between the dosage amount of SMO-siRNA and the ratio of the amount of SMO mRNA to the amount of GAPDH mRNA in the liver tissue was examined. For comparison, the relationship between the dosage amount of control siRNA (siCtrl) and the ratio of SMO mRNA to GAPDH mRNA in hepatic stellate cells was also examined.\nLipid nanoparticles encapsulating a mixture of the above SMO-siRNA and TGFβ1-siRNA at a ratio of 1:1 were prepared by using CL15H6, the above SMO-siRNA (SEQ ID NOs: 1 and 2) targeting the mRNA of the SMO gene and the TGFβ1-siRNA (SEQ ID NOS: 3 and 4) targeting the mRNA of the TGFβ1 gene and having the sequence shown in Table 4 below. The prepared lipid nanoparticles were intravenously administered to mice with liver fibrosis so that each of the amounts of SMO-siRNA and of TGFβ1-siRNA per kg of body weight was 0.25 mg/kg, and 24 hours later, the ratios of the amounts of SMO mRNA and of TGFβ1 mRNA to the amount of GAPDH mRNA in the liver tissue was confirmed."}, "[2]": {"test_system": "hepatic stellate cells", "experiment": "In vivo mRNA delivery to hepatic stellate cells in TAA-induced liver fibrosis model mice", "conditions": "24 hours", "description": "Thioacetamide (TAA (TCI, Japan))-induced liver fibrosis models were generated in 4-week-old male BALB/c mise (Sankyo laboratories, Japan). Specifically, TAA dissolved in saline was injected intraperitoneally at an amount of 200 mg/kg of TAA per kg of body weight. This was repeated every 3 days for a total of 10 times. The livers of the liver fibrosis model mice were examined by histopathology and hydroxyproline quantitative assay (Cell Biolabs Inc, USA), and the activation of hepatic stellate cells (HSCs) was confirmed by quantitative real-time polymerase chain reaction (qRT-PCR).\nThe lipid nanoparticles prepared by using CL15A6 encapsulated the above-described EGFP mRNA or firefly luciferase (FLuc) mRNA (TriLink BioTechnologies, USA), and the lipid nanoparticles were administered intravenously to mice via the tail vein so that the amount of RNA per kg of body weight was 1 mg/kg. Twenty-four hours after the administration, hepatic stellate cells and hepatocytes were collected from the livers of the mice as described in NPL 15. For EGFP mRNA, FACS was used to evaluate delivery efficiency and transfection efficiency, and for FLuc mRNA, the luciferase assay was used to evaluate delivery efficiency as described in NPL 16. • [NPL 15] Ingmar Mederacke, et al., “High-yield and high-purity isolation of hepatic stellate cells from normal and fibrotic mouse livers”, Nature Protocols, Vol. 10, pp. 305-315 • [NPL 16] Ikramy A. Khalil, et al., “Synergism between a cell penetrating peptide and a pH-sensitive cationic lipid in efficient gene delivery based on double-coated nanoparticles”, Journal of Controlled Release, Vol. 275, pp. 107-116\nFirst, the microchannel device (iLiNP device) was operated under different conditions to prepare lipid nanoparticles with different average particle sizes. Specifically, lipid nanoparticles with an average particle size of more than 150 nm (e.g., 180 nm), lipid nanoparticles with an average particle size of 100 to 150 nm (e.g., 130 nm), and lipid nanoparticles with an average particle size of less than 100 nm (e.g., 90 nm) were prepared. The prepared lipid nanoparticles were administered intravenously to mice with liver fibrosis, and the mRNA delivery efficiency and transfection efficiency with respect to hepatic stellate cells and hepatocytes were evaluated 24 hours later.\nNext, lipid nanoparticles with different nitrogen/phosphate (N/P) ratios were prepared by mixing a lipid composition containing CL15A6 with mRNA at different ratios. Specifically, lipid nanoparticles with N/P ratios of 4, 8, 12, 16, and 20 were prepared. The prepared lipid nanoparticles were intravenously administered to mice with liver fibrosis, and the mRNA delivery efficiency and transfection efficiency with respect to hepatic stellate cells and hepatocytes were evaluated 24 hours later.\nNext, lipid nanoparticles containing different types of helper phospholipids were prepared by changing the type of helper phospholipid in the lipid composition containing CL15A6. As the unsaturated phosphatidylethanolamine, 1,2-dioleoyl-sn-glycero-3-phosphoethanolamine (DOPE) was used. As the unsaturated phosphatidylcholine, 1,2-dioleoyl-sn-glycero-3-phosphocholine (DOPC) was used. As the saturated phospholipid, 1,2-distearoyl-sn-glycero-3-phosphocholine (DSPC) was used. The prepared lipid nanoparticles were intravenously administered to mice with liver fibrosis, and the mRNA delivery efficiency and transfection efficiency with respect to hepatic stellate cells and hepatocytes were evaluated 24 hours later.\nNext, lipid nanoparticles containing helper phospholipid (DOPE) at different molar percentages were prepared by changing the molar ratio of the helper phospholipid (DOPE). The prepared lipid nanoparticles were intravenously administered to mice with liver fibrosis, and the mRNA delivery efficiency and transfection efficiency with respect to hepatic stellate cells and hepatocytes were evaluated 24 hours later. […]"}, "[3]": {"conditions": "CL15A6 lipid nanoparticles iv, DMG-PEG2K 3 to 5 mol %"}, "[4]": {"conditions": "CL15A6 lipid nanoparticles, 1 mg/kg RNA iv, when particle size was reduced (>150 nm, 100 to 150 nm, <100 nm)"}},
  "data": [
    {"molecule": "CCCCC/C=C\\C/C=C\\CCCCCCCCC(O)(CCCCCCCC/C=C\\C/C=C\\CCCCC)CCCCOC(=O)C1CCN(C)CC1", "note": "[CL15A6, (14z,17z)-5-hydroxy-5-((9z,12z)-octadeca-9,12-dien-1-yl)tricosa-14,17-dien-1-yl 1-methylpiperidine-4-carboxylate]", "values": [
      {"measurement": "amount of SMO mRNA (ratio to GAPDH mRNA) in liver tissue", "setting": "[1]", "value": "significantly reduced"},
      {"measurement": "mRNA delivery efficiency", "setting": "[2]; CL15A6 lipid nanoparticles iv, DMG-PEG2K 1.5 mol %", "value": "decreased"},
      {"measurement": "efficiency of mRNA delivery to hepatic stellate cells", "setting": "[2]; [3]", "value": "high"},
      {"measurement": "hepatic stellate cells transfected in vivo", "setting": "[2]; [3]", "value": "≥ 80", "unit": "%"},
      {"measurement": "delivery of mRNA to hepatic stellate cells", "setting": "[2]; CL15A6 lipid nanoparticles iv, DOPE 20 to 30 mol %", "value": "significantly improved"},
      {"measurement": "delivery of mRNA to hepatic stellate cells", "setting": "[2]; CL15A6 lipid nanoparticles iv, DOPE 40 mol %", "value": "reduced"},
      {"measurement": "delivery of mRNA to hepatic stellate cells", "setting": "[2]; CL15A6 lipid nanoparticles iv, N/P ratio increased from 4 to 8", "value": "significantly improved"},
      {"measurement": "mRNA delivery efficiency", "setting": "[2]; CL15A6 lipid nanoparticles iv, N/P ratio increased from 16 to 20", "value": "decreased"},
      {"measurement": "mRNA delivery to hepatic stellate cells", "setting": "[2]; CL15A6 lipid nanoparticles iv, helper phospholipid DOPE compared to DOPC and DSPC", "value": "significantly improved"},
      {"measurement": "mRNA delivery efficiency to hepatic stellate cells", "setting": "[2]; [4]", "value": "linearly improved"},
      {"measurement": "transfection efficiency of hepatic stellate cells", "setting": "[2]; [4]", "value": "linearly improved"}
    ]}
  ]
}
